# Biological target: unphosphorylated-BTK kinase domain (UP-BTK), GST-tagged human BTK (389-659aa) (Homo sapiens (Human), UniProt Q06187)
# Experiment: BTK Kinase Lanthascreen Binding Assay
# Details: compound, 50 nM Tracer 236, 2 nM anti-GST antibody, 60 minutes; pIC50 = negative log of the IC50 in molar
# Protocol: BTK Kinase Lanthascreen Binding Assay:
# A BTK kinase lanthascreen binding assay monitors compound binding to unphosphorylated-BTK kinase domain (UP-BTK), by competing with a fluorescent labeled tracer. […] Data were analyzed using Xlfit™ version 5.3 from ID Business Solutions (Guildford), Microsoft Excel add-in. pIC50 refers to the negative log of the IC50 in molar.
# unphosphorylated-BTK kinase domain (UP-BTK), GST-tagged human BTK (389-659aa), sequence (Q06187 389-659): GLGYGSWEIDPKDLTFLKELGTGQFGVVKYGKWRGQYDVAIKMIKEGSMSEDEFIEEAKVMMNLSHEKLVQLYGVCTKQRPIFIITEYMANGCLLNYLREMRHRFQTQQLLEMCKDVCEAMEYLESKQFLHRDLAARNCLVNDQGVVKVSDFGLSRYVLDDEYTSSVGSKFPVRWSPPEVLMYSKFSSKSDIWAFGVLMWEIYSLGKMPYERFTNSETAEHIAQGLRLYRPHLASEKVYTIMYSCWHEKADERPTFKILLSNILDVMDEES
row,SMILES,BTK_I_binding pIC50
1,"C=CC(=O)N[C@H]1CCC[C@@H]1NC(=O)c1sc2nccc3c2c1NC(=O)N3c1ccc(Oc2ccccc2)cc1C (single isomer, unassigned) [Example 56, N-((1S,2S)-2-Acrylamidocyclopentyl)-5-(*R)-(2-methyl-4-phenoxyphenyl)-4-oxo-4,5-dihydro-3H-1-thia-3,5,8-triazaacenaphthylene-2-carboxamide]",5.77
2,"Cc1cc(Oc2ccccc2)ccc1N1C(=O)Nc2c(C(=O)N[C@@H]3CCC[C@H]3O)sc3nccc1c23 (single isomer, unassigned) [Example 61, N-((1R,2R)-2-Hydroxycyclopentyl)-5-(*R)-(2-methyl-4-phenoxyphenyl)-4-oxo-4,5-dihydro-3H-1-thia-3,5,8-triazaacenaphthylene-2-carboxamide]",5.36
3,"CC(=O)N[C@@H]1CCC[C@H]1NC(=O)c1sc2nccc3c2c1NC(=O)N3c1ccc(Oc2ccccc2)cc1C (single isomer, unassigned) [Example 67, N-((1R,2R)-2-Acetamidocyclopentyl)-5-(*S)-(2-methyl-4-phenoxyphenyl)-4-oxo-4,5-dihydro-3H-1-thia-3,5,8-triazaacenaphthylene-2-carboxamide]",7.41
4,"Cc1cc(Oc2ccccc2)ccc1N1C(=O)Nc2c(C(=O)N[C@H]3CC[C@@H](O)CC3)sc3nccc1c23 (single isomer, unassigned) [Example 83, N-((1S,4S)-4-Hydroxycyclohexyl)-5-(*S)-(2-methyl-4-phenoxyphenyl)-4-oxo-4,5-dihydro-3H-1-thia-3,5,8-triazaacenaphthylene-2-carboxamide]",7.60
5,"Cc1cc(Oc2ccccc2)ccc1N1C(=O)Nc2c(C(=O)N[C@H]3CC[C@@H](O)CC3)sc3nccc1c23 (single isomer, unassigned) [Example 84, N-((1S,4S)-4-Hydroxycyclohexyl)-5-(*R)-(2-methyl-4-phenoxyphenyl)-4-oxo-4,5-dihydro-3H-1-thia-3,5,8-triazaacenaphthylene-2-carboxamide]",6.21
6,"Cc1cc(Oc2ccccc2)ccc1N1C(=O)Nc2c(C(=O)N[C@H]3CC[C@H](O)CC3)sc3nccc1c23 (single isomer, unassigned) [Example 85, N-((1R,4R)-4-Hydroxycyclohexyl)-5-(*S)-(2-methyl-4-phenoxyphenyl)-4-oxo-4,5-dihydro-3H-1-thia-3,5,8-triazaacenaphthylene-2-carboxamide]",7.67
7,"CCC(=O)N[C@@H]1CC[C@H](NC(=O)c2sc3nccc4c3c2NC(=O)N4c2ccc(Oc3ccccc3)cc2C)C1 (single isomer, unassigned) [Example 87, 5-(*S)-(2-Methyl-4-phenoxyphenyl)-4-oxo-N-((1S,3R)-3-propionamidocyclopentyl)-4,5-dihydro-3H-1-thia-3,5,8-triazaacenaphthylene-2-carboxamide]",7.87
8,"CCC(=O)N[C@H]1CC[C@@H](NC(=O)c2sc3nccc4c3c2NC(=O)N4c2ccc(Oc3ccccc3)cc2C)CC1 (single isomer, unassigned) [Example 92, 5-(*S)-(2-Methyl-4-phenoxyphenyl)-4-oxo-N-((1S,4S)-4-propionamidocyclohexyl)-4,5-dihydro-3H-1-thia-3,5,8-triazaacenaphthylene-2-carboxamide]",6.91
9,"CCC(=O)N[C@H]1CC[C@@H](NC(=O)c2sc3nccc4c3c2NC(=O)N4c2ccc(Oc3ccccc3)cc2C)CC1 (single isomer, unassigned) [Example 93, 5-(*R)-(2-Methyl-4-phenoxyphenyl)-4-oxo-N-((1S,4S)-4-propionamidocyclohexyl)-4,5-dihydro-3H-1-thia-3,5,8-triazaacenaphthylene-2-carboxamide]",6.99
10,"CC(=O)N[C@H]1CC[C@@H](NC(=O)c2sc3nccc4c3c2NC(=O)N4c2ccc(Oc3ccccc3)cc2C)CC1 (single isomer, unassigned) [Example 94, N-((1S,4S)-4-Acetamidocyclohexyl)-5-(*S)-(2-methyl-4-phenoxyphenyl)-4-oxo-4,5-dihydro-3H-1-thia-3,5,8-triazaacenaphthylene-2-carboxamide]",7.59
11,"CC(=O)N[C@H]1CC[C@@H](NC(=O)c2sc3nccc4c3c2NC(=O)N4c2ccc(Oc3ccccc3)cc2C)CC1 (single isomer, unassigned) [Example 95, N-((1S,4S)-4-Acetamidocyclohexyl)-5-(*R)-(2-methyl-4-phenoxyphenyl)-4-oxo-4,5-dihydro-3H-1-thia-3,5,8-triazaacenaphthylene-2-carboxamide]",6.14
12,"C=CC(=O)N[C@@H]1CC[C@H](NC(=O)c2sc3nccc4c3c2NC(=O)N4c2ccc(Oc3ccccc3)cc2C)C1 (single isomer, unassigned) [Example 101, N-((1S,3R)-3-Acrylamidocyclopentyl)-5-(*S)-(2-methyl-4-phenoxyphenyl)-4-oxo-4,5-dihydro-3H-1-thia-3,5,8-triazaacenaphthylene-2-carboxamide]",7.95
13,"Cc1cc(Oc2ccccc2)ccc1N1C(=O)Nc2c(C(=O)N[C@H]3CC[C@@H](NC(=O)CN(C)C)C3)sc3nccc1c23 (single isomer, unassigned) [Example 102, N-((1S,3R)-3-(2-(dimethylamino)acetamido)cyclopentyl)-5-(*S)-(2-methyl-4-phenoxyphenyl)-4-oxo-4,5-dihydro-3H-1-thia-3,5,8-triazaacenaphthylene-2-carboxamide]",7.50
14,"CNCC(=O)N[C@@H]1CC[C@H](NC(=O)c2sc3nccc4c3c2NC(=O)N4c2ccc(Oc3ccccc3)cc2C)C1 (single isomer, unassigned) [Example 103, 5-(*S)-(2-Methyl-4-phenoxyphenyl)-N-((1S,3R)-3-(2-(methylamino)acetamido)cyclopentyl)-4-oxo-4,5-dihydro-3H-1-thia-3,5,8-triazaacenaphthylene-2-carboxamide]",7.40
15,"C=CC(=O)N[C@@H]1CCC[C@H]1NC(=O)c1sc2nccc3c2c1NC(=O)N3c1ccc(Oc2ccccc2)cc1C (single isomer, unassigned) [Example 105, N-((1R,2R)-2-Acrylamidocyclopentyl)-5-(*S)-(2-methyl-4-phenoxyphenyl)-4-oxo-4,5-dihydro-3H-1-thia-3,5,8-triazaacenaphthylene-2-carboxamide]",8.11
16,"C=CC(=O)N[C@H]1CCC[C@H]1NC(=O)c1sc2nccc3c2c1NC(=O)N3c1ccc(Oc2ccccc2)cc1C (single isomer, unassigned) [Example 107, N-((1R,2S)-2-Acrylamidocyclopentyl)-5-(*S)-(2-methyl-4-phenoxyphenyl)-4-oxo-4,5-dihydro-3H-1-thia-3,5,8-triazaacenaphthylene-2-carboxamide]",8.25
17,"C=CC(=O)N[C@H]1CCCC[C@H]1NC(=O)c1sc2nccc3c2c1NC(=O)N3c1ccc(Oc2ccccc2)cc1C (single isomer, unassigned) [Example 108, N-((1R,2S)-2-Acrylamidocyclohexyl)-5-(*S)-(2-methyl-4-phenoxyphenyl)-4-oxo-4,5-dihydro-3H-1-thia-3,5,8-triazaacenaphthylene-2-carboxamide]",7.56
18,"Cc1cc(Oc2ccccc2)ccc1N1C(=O)Nc2c(C(=O)N[C@@H]3CCC[C@H]3NC(=O)CN(C)C)sc3nccc1c23 (single isomer, unassigned) [Example 111, N-((1R,2R)-2-(2-(Dimethylamino)acetamido)cyclopentyl)-5-(*S)-(2-methyl-4-phenoxyphenyl)-4-oxo-4,5-dihydro-3H-1-thia-3,5,8-triazaacenaphthylene-2-carboxamide]",7.68
19,"CNCC(=O)N[C@@H]1CCC[C@H]1NC(=O)c1sc2nccc3c2c1NC(=O)N3c1ccc(Oc2ccccc2)cc1C (single isomer, unassigned) [Example 112, 5-(*S)-(2-Methyl-4-phenoxyphenyl)-N-((1R,2R)-2-(2-(methylamino)acetamido)cyclopentyl)-4-oxo-4,5-dihydro-3H-1-thia-3,5,8-triazaacenaphthylene-2-carboxamide]",8.04
20,"Cc1cc(Oc2ccccc2)ccc1N1C(=O)Nc2c(C(=O)N[C@@H]3CCC[C@H]3NC(=O)CN)sc3nccc1c23 (single isomer, unassigned) [Example 113, N-((1R,2R)-2-(2-Aminoacetamido)cyclopentyl)-5-(*S)-(2-methyl-4-phenoxyphenyl)-4-oxo-4,5-dihydro-3H-1-thia-3,5,8-triazaacenaphthylene-2-carboxamide]",7.88
21,"C=CC(=O)N[C@@H]1CCC[C@@H]1NC(=O)c1sc2nccc3c2c1NC(=O)N3c1ccc(Oc2ccccc2)cc1C (single isomer, unassigned) [Example 114, N-((1S,2R)-2-Acrylamidocyclopentyl)-5-(*S)-(2-methyl-4-phenoxyphenyl)-4-oxo-4,5-dihydro-3H-1-thia-3,5,8-triazaacenaphthylene-2-carboxamide]",6.81
22,"Cc1cc(Oc2ccccc2)ccc1N1C(=O)Nc2c(C(=O)N[C@@H]3CCC[C@@H]3N)sc3nccc1c23 (single isomer, unassigned) [Example 115, N-((1R,2S)-2-Aminocyclopentyl)-5-(*S)-(2-methyl-4-phenoxyphenyl)-4-oxo-4,5-dihydro-3H-1-thia-3,5,8-triazaacenaphthylene-2-carboxamide]",7.57
23,"C=CC(=O)N[C@H]1CCC[C@@H]1NC(=O)c1sc2nccc3c2c1NC(=O)N3c1ccc(Oc2ccccc2)cc1C (single isomer, unassigned) [Example 116, N-((1S,2S)-2-Acrylamidocyclopentyl)-5-(*S)-(2-methyl-4-phenoxyphenyl)-4-oxo-4,5-dihydro-3H-1-thia-3,5,8-triazaacenaphthylene-2-carboxamide]",7.30
